Laboratory results taken from US20260250318A1, “COMPOSITIONS AND METHODS FOR CROSSING THE BLOOD BRAIN BARRIER” (VOYAGER THERAPEUTICS, INC., priority 2022, published 2026).

Legend:
[1] = system: brains, heart, liver, muscle, and DRG of the NHPs; assay: Maturation of TTM-001 and TTM-002 capsids, NGS enrichment in NHP tissues; assay type: in vivo; conditions: relative to AAV9 control
Method in brief: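 Variants carry mutations within and flanking the loop IV peptide insert: positions 450–466 were triplet-randomized, while positions 449–466 received low-frequency point mutations. The combined pool went into two NHPs, and each peptide was scored by NGS enrichment ratio against AAV9.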

brain = assay: Matured TTM-001 and TTM-002 variants, NGS enrichment in mouse brain; assay type: in vivo, mice; conditions: relative to AAV9 control
[2] = NGS fold-enrichment of matured AAV capsid variants, NHP brain, RNA
[3] = NGS fold-enrichment of RNA, NHP brain
[4] = NGS fold-enrichment, DRG of NHPs
[5] = NGS fold-enrichment, NHP liver DNA
[6] = NGS fold-enrichment, NHP liver RNA
[7] = NGS fold-enrichment, NHP muscle
[8] = NGS fold-enrichment, RNA, brain of NHPs
[9] = NGS fold-enrichment, heart of NHPs
[10] = NGS fold-enrichment, liver DNA of NHPs
[11] = NGS fold-enrichment, liver RNA of NHPs
[12] = NGS fold-enrichment, muscle of NHPs
[13] = NGS fold-enrichment, brain of mice
[14] = NGS fold-enrichment, mouse brain

Row | Sequence | Fold Enrichment relative to AAV9, Brain (NHP) [1, 2] [fold] | Fold Enrichment relative to AAV9, DRG (NHP) ([1]; NHP DRG) [fold] | Fold Enrichment relative to AAV9, Heart (NHP) ([1]; NHP heart) [fold] | Fold Enrichment relative to AAV9, Liver DNA (NHP) ([1]; NHP liver, DNA) [fold] | Fold Enrichment relative to AAV9, Liver RNA (NHP) ([1]; NHP liver, RNA) [fold] | Fold Enrichment relative to AAV9, Muscle (NHP) ([1]; NHP muscle) [fold] | Fold Enrichment relative to AAV9, Brain (Mouse) (brain; mouse brain) [fold] | Fold Enrichment relative to AAV9, Brain (NHP) [1, 3] [fold] | Fold Enrichment relative to AAV9, DRG (NHP) ([1]; NGS fold-enrichment, NHP DRG) [fold] | Fold Enrichment relative to AAV9, Heart (NHP) ([1]; NGS fold-enrichment, NHP heart) [fold] | Fold Enrichment relative to AAV9, Liver DNA (NHP) [1, 5] [fold] | Fold Enrichment relative to AAV9, Liver RNA (NHP) [1, 6] [fold] | Fold Enrichment relative to AAV9, Muscle (NHP) [1, 7] [fold] | Fold Enrichment relative to AAV9, Brain (Mouse) (brain; [14]) [fold] | other results
1 | KTEYNSGSPHSKAQNQQT | 50.256 | 0.000 | 0.000 | 0.009 | 0.000 | 0.000 | 62.679 | – | – | – | – | – | – | – | –
2 | KELHGSGSPHSKAQNQQT | – | – | – | – | – | – | – | 102.680 | 0.000 | 0.000 | 0.592 | 1.634 | 0.000 | 96.554 | Fold Enrichment relative to AAV9, DRG (NHP) [1, 4]: 0.000 fold; Fold Enrichment relative to AAV9, Brain (NHP) [1, 8]: 102.680 fold; Fold Enrichment relative to AAV9, Heart (NHP) [1, 9]: 0.000 fold; Fold Enrichment relative to AAV9, Liver DNA (NHP) [1, 10]: 0.592 fold; Fold Enrichment relative to AAV9, Liver RNA (NHP) [1, 11]: 1.634 fold; Fold Enrichment relative to AAV9, Muscle (NHP) [1, 12]: 0.000 fold; Fold Enrichment relative to AAV9, Brain (Mouse) (brain; [13]): 96.554 fold
3 | KTINGGGSPHSKSQNRQT | 51.017 | 0.000 | 0.000 | 0.421 | 0.000 | 0.000 | 149.370 | – | – | – | – | – | – | – | –
4 | KTISGHDSPHKTGHNQQT | – | – | – | – | – | – | – | 92.490 | 0.000 | 0.233 | 0.000 | 0.730 | 0.057 | 8.823 | –
5 | KTINGSGSPHSKAQMPST | 54.986 | 1.691 | 0.039 | 0.202 | 0.450 | 0.028 | 114.331 | – | – | – | – | – | – | – | –
6 | KTINGSGSPHSKAQAITT | 56.924 | 0.000 | 0.000 | 0.438 | 1.239 | 0.000 | 75.250 | – | – | – | – | – | – | – | –
7 | KTINGNGSPHSKAQNHQA | – | – | – | – | – | – | – | 88.274 | 0.000 | 0.024 | 0.041 | 0.000 | 0.000 | 36.754 | –
8 | KSDQGSGSPHSKAQNQQT | – | – | – | – | – | – | – | 80.076 | 0.000 | 0.000 | 0.124 | 0.993 | 0.000 | 151.911 | Fold Enrichment relative to AAV9, DRG (NHP) [1, 4]: 0.000 fold; Fold Enrichment relative to AAV9, Brain (NHP) [1, 8]: 80.076 fold; Fold Enrichment relative to AAV9, Heart (NHP) [1, 9]: 0.000 fold; Fold Enrichment relative to AAV9, Liver DNA (NHP) [1, 10]: 0.124 fold; Fold Enrichment relative to AAV9, Liver RNA (NHP) [1, 11]: 0.993 fold; Fold Enrichment relative to AAV9, Muscle (NHP) [1, 12]: 0.000 fold; Fold Enrichment relative to AAV9, Brain (Mouse) (brain; [13]): 151.911 fold
